pKi: −log10 of the molar value. A value given as a limit tells only on which side of the number the result lay.

For assay [1], the target named is T1, 5-hydroxytryptamine receptor 1A (Rattus norvegicus, UniProt P19327).
T1 sequence (P19327 whole entry): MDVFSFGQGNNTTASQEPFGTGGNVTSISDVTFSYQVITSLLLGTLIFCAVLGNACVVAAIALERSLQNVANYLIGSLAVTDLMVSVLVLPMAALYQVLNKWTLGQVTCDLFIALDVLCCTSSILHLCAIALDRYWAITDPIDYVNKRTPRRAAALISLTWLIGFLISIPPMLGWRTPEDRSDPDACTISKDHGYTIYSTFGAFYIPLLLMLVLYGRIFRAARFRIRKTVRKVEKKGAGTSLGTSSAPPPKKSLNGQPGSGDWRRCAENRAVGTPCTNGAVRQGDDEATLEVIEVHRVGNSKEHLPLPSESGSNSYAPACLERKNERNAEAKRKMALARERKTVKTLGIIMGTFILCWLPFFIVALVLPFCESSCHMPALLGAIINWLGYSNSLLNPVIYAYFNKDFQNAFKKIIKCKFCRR
Nature of the assay: Compound was tested for the Binding affinity against rat hippocampal 5-hydroxytryptamine 1A receptor by Radio ligand [3H]8-OH-DPAT binding assay. Format: tissue-based, Hippocampus.

For assay [2], the target named is T2, Adrenergic receptor alpha-1 (Rattus norvegicus, UniProt P15823+P23944+P43140).
T2 sequence (P15823 whole entry): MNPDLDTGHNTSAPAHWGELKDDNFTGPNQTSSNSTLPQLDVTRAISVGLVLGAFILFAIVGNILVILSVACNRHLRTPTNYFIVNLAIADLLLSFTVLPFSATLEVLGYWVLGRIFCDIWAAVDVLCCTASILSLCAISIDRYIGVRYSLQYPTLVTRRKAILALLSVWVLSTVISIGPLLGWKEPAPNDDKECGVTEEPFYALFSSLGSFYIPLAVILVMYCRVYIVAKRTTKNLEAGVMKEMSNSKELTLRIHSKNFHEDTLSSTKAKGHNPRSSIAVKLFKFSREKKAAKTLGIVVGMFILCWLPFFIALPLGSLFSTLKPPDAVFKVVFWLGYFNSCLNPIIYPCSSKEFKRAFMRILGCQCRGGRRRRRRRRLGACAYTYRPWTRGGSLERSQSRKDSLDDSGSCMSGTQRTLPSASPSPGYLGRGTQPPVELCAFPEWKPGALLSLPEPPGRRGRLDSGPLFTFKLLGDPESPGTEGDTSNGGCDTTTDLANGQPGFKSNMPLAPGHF
T2 sequence (P23944 whole entry): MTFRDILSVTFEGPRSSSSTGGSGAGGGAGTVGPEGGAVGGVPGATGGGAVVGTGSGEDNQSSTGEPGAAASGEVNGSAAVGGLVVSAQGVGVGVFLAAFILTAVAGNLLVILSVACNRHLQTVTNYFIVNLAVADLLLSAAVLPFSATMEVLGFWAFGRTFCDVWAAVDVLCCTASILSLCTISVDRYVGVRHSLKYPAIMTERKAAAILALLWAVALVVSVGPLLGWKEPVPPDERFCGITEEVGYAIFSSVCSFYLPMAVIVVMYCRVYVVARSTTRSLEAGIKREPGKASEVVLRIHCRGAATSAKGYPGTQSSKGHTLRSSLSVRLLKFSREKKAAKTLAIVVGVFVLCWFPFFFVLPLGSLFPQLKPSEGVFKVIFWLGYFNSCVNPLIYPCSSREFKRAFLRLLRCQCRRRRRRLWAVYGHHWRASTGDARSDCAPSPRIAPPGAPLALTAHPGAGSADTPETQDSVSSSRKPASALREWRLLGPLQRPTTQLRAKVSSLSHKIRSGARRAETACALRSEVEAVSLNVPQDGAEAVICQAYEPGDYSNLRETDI
T2 sequence (P43140 whole entry): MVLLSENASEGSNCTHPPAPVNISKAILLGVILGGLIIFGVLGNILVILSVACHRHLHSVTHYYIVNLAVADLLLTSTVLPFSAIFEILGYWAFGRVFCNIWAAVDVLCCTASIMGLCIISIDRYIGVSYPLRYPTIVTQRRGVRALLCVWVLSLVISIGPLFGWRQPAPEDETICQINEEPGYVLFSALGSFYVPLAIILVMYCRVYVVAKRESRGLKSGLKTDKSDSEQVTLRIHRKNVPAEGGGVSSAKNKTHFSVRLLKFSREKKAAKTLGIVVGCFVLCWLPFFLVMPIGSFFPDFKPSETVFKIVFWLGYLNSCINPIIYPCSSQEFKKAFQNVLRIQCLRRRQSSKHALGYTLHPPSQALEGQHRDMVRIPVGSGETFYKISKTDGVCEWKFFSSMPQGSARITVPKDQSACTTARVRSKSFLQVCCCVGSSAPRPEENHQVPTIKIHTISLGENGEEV
Nature of the assay: Compound was tested for the binding affinity against rat cortical Alpha-1 adrenergic receptor by radioligand [3H]prazosin binding assay. Format: protein assay.

In assay [3] the target is D(1A) dopamine receptor (Homo sapiens, UniProt P21728). Nature of the assay: Compound was tested for the Binding affinity against Human cloned Dopamine receptor D1 by Radio ligand ([3H]SCH-23390) binding assay.
Sequence of D(1A) dopamine receptor (P21728 whole entry): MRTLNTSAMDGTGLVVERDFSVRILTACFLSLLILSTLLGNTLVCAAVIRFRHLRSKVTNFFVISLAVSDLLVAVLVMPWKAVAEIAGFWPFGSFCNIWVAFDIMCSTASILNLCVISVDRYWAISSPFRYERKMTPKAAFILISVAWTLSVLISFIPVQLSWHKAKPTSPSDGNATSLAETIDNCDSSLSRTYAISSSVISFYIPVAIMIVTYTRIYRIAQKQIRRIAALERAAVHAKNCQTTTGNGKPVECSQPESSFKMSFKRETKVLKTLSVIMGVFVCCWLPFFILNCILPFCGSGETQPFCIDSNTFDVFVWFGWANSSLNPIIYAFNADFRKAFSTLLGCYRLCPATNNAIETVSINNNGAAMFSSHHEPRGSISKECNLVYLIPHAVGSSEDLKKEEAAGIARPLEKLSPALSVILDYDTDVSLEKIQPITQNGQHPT
Assay [4] deals with Mus musculus. As to the kind of experiment: Compound was tested for inhibition of Apomorphine induced climbing in Mice on subcutaneous administration. It is filed as functional. Conditions: sc.
For assay [5], the target named is T3, Muscarinic acetylcholine receptor M2 (Rattus norvegicus, UniProt P10980).
T3 sequence (P10980 whole entry): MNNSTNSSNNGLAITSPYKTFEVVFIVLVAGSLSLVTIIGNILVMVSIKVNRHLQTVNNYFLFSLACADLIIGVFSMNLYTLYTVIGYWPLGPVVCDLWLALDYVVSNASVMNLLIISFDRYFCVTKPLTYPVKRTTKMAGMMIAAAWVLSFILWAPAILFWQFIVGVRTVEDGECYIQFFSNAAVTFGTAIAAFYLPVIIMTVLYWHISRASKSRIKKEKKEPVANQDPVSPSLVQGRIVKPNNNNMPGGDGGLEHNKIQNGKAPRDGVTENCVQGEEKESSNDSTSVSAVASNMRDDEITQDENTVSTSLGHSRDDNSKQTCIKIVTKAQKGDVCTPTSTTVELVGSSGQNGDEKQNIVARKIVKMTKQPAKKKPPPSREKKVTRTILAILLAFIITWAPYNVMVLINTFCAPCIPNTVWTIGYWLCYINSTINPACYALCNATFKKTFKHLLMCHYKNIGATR
As to the kind of experiment: Compound was tested for the Binding affinity against rat heart Muscarinic acetylcholine receptor M2 by Radio ligand [3H]quinuclidinyl binding assay.

The target in assay [6] is D(1B) dopamine receptor (Homo sapiens, UniProt P21918).
Sequence of D(1B) dopamine receptor (P21918 whole entry): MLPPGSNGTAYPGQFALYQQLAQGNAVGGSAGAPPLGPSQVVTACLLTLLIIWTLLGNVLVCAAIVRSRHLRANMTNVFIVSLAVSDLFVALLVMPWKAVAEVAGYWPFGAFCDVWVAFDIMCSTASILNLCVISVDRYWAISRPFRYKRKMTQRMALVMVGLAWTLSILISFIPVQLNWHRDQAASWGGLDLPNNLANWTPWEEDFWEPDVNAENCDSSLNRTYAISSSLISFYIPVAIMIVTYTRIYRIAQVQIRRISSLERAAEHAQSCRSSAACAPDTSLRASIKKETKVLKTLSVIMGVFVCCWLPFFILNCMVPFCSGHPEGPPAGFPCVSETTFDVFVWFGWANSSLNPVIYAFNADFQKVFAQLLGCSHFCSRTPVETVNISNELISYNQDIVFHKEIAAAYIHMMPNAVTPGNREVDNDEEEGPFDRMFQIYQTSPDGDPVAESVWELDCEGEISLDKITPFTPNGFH
The target in assay [7] is D(3) dopamine receptor (Rattus norvegicus, UniProt P19020). As to the kind of experiment: biochemical.
Sequence of D(3) dopamine receptor (P19020 whole entry): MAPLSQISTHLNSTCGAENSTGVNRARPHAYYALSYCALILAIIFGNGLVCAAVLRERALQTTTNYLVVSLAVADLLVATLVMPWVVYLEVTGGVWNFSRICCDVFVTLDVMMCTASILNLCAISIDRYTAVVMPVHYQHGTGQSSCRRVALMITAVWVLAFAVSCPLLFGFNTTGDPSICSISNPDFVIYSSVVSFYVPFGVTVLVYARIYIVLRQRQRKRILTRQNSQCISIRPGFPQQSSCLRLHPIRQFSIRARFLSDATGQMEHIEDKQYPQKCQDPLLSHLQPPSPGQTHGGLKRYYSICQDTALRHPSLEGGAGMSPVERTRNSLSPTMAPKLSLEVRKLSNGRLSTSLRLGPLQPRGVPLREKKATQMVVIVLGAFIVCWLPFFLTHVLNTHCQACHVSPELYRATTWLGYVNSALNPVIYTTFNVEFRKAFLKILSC
Description: Binding affinity to rat Dopamine receptor D3 expressed in CHO cells was determined using [125 I] iodosulpride as radioligand

`COc1cc(NC(=O)C2CC2)c(Cl)cc1C(=O)N[C@H]1CCN(Cc2ccccc2)C1`: the pKi in assay [1] was below 5.00; in assay [3], below 5.00; in assay [5] it was 5.14; in assay [6], below 5.00; in assay [7], 7.68. The compound also gave a Ki in assay [2] of 5.3 µM. The ED50 in assay [4] was 0.32 mg/kg.

Usually pKi stands for the negative decadic logarithm of the Ki, by convention in mol/L. A high value points to a low Ki. For orientation: Ki means the equilibrium dissociation constant of an inhibitor or competing ligand from its target. The ED50 is the midpoint of the dose-response relation. Higher therefore signals a need for a large dose.

(Values after ChEMBL document CHEMBL1129789, “Dopamine D3 and D4 receptor antagonists: synthesis and structure--activity relationships of (S)-(+)-N-(1-Benzyl-3-pyrrolidinyl)-5-chloro-4- [(cyclopropylcarbonyl) amino]-2-methoxybenzamide (YM-43611) and related compounds” (J Med Chem, 1996).)
